# Test results reported in ChEMBL document CHEMBL3997835, “Isoquinoline alkaloids from Coptis japonica stimulate the myoblast differentiation via p38 MAP-kinase and Akt signaling pathway” (Bioorg Med Chem Lett, 2017).
# Activity calls are given as the source filed them. The calls are words filed in the database; no cut-off is given here.
# What was measured:
# [1] = tested on: C2C12; test: Cytotoxicity against mouse C2C12 cells at 10 nM up to 24 hrs; type: cell-based; details: c2c12, 24 h, 0.01 µM
# [2] = tested on: C2C12; test: Induction of myoblast differentiation in mouse C2C12 cells expressing MyoD-responsive 4RTK-Luc assessed as increase in MHC protein expression at 10 nM after 2 days by Western blot analysis; type: functional, cell-based
# [3] = tested on: C2C12; test: Induction of MyoD transcriptional activity in mouse C2C12 cells expressing MyoD-responsive 4RTK-Luc at 10 nM after 24 hrs by luciferase reporter gene assay; type: functional, cell-based
# [4] = biological target: MAP kinase p38 (Mus musculus) (UniProt P47811+O08911+Q9WUI1+Q9Z1B7); test: Induction of p38 MAPK phosphorylation in mouse C2C12 cells at 0.1 nM after 2 days by Western blot analysis relative to control; type: cell-based
# [5] = tested on: C2C12; test: Induction of myoblast differentiation in mouse C2C12 cells assessed as cylinder shaped multinucleated myotubes after 2 days by DAPI staining based immunofluorescence assay; type: functional, cell-based
# [6] = biological target: RAC-alpha serine/threonine-protein kinase (Mus musculus) (UniProt P31750); test: Induction of Akt phosphorylation in mouse C2C12 cells up to 10 nM after 2 days by Western blot analysis; type: cell-based
# [7] = tested on: C2C12; test: Induction of myoblast differentiation in mouse C2C12 cells assessed as increase in MyoD protein expression after 2 days by Western blot analysis; type: functional, cell-based
# [8] = tested on: C2C12; test: Induction of myoblast differentiation in mouse C2C12 cells assessed as increase in MHC expression after 2 days by DAPI staining based immunofluorescence assay; type: functional, cell-based
# [9] = tested on: C2C12; test: Induction of myoblast differentiation in mouse C2C12 cells assessed as increase in MHC protein expression after 2 days by Western blot analysis; type: functional, cell-based
# RAC-alpha serine/threonine-protein kinase (Mus musculus), sequence (P31750 whole entry): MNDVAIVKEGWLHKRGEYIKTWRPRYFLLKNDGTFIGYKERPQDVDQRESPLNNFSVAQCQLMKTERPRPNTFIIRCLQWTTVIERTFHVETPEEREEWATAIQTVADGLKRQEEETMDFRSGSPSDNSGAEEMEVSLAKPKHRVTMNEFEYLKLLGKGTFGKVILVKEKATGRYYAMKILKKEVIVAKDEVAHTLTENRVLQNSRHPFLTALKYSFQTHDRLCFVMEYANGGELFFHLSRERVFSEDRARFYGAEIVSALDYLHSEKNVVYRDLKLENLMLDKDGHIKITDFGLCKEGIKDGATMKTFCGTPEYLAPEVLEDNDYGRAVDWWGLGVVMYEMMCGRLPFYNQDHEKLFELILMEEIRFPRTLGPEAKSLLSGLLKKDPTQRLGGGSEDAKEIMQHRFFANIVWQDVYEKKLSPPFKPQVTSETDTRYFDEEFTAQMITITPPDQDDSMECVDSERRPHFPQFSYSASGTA
SMILES,Activity [1],Activity [2],Activity [3],fold change (FC) [4],Activity [5],Activity [6],Activity [7],Activity [8],Activity [9]
COc1cc2c(cc1OC)-c1cc3ccc4c(c3c[n+]1CC2)OCO4,Non-Toxic,Active,Active,–,–,–,–,–,–
OC1c2c(ccc3c2OCO3)C=C2c3cc4c(cc3CCN21)OCO4 (centres undefined),Non-Toxic,Active,Active,–,–,–,–,–,–
COc1ccc2cc3[n+](cc2c1OC)CCc1cc2c(cc1-3)OCO2 [BERBERINE],Non-Toxic,Active,Active,–,–,–,–,–,–
COc1cc2c(cc1O)CC[n+]1cc3c(OC)c(OC)ccc3cc1-2 [JATRORRHIZINE],Non-Toxic,Active,Active,–,–,–,–,–,–
COc1ccc2c(c1O)-c1c(O)c(OC)cc3c1[C@H](C2)[N+](C)(C)CC3 [MAGNOFLORINE],Non-Toxic,Active,Active,6,Dose-dependent effect,Active,Dose-dependent effect,Dose-dependent effect,Dose-dependent effect
COc1cc2c(cc1OC)-c1cc3ccc(OC)c(OC)c3c[n+]1CC2 [PALMITINE],Non-Toxic,Active,Active,–,–,–,–,–,–
